Reference: patent publication US10065941B2, “Aminotriazine derivative and pharmaceutical composition comprising the same” (Shionogi & Co., Ltd., priority 2013, dated 2018)

Target: human P2X3 receptor (Homo sapiens (Human), UniProt P56373)
Assay: Evaluation of human P2X3 receptor inhibitory activity (Test Example 1)
Assay type: cell-based
Details: C6BU-1 cell transfected with human P2X3 receptor gene, FLIPR 384
Procedure, shortened: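 C6BU-1 cells stably expressing human P2X3, loaded with 4 μM Fluo-3-AM 1 h at 37 °C, preincubated 5 min with test compound, then stimulated with 150 nM ATP solution (stock, pre-dispense) and monitored by FLIPR for 4 min. IC50 derived from maximum fluorescence ratio (post-ATP peak over baseline).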

Chain of human P2X3 receptor (P56373 whole entry): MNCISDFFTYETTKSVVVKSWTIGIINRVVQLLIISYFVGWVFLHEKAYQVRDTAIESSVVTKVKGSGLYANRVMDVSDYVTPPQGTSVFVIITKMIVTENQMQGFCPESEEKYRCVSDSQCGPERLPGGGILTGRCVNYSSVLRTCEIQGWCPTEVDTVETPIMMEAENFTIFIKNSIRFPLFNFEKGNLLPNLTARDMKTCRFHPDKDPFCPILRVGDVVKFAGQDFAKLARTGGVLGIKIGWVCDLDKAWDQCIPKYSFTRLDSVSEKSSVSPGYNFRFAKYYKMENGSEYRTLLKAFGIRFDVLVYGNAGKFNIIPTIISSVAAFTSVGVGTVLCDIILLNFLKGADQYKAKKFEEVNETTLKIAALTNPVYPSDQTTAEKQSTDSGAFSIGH

| Compound | IC50 |
| --- | --- |
| CCOC(=O)[C@H]1C[C@H](n2c(=O)[nH]/c(=N\c3ccc(Oc4ccc(F)cn4)cc3)n(Cc3ccc(C)cc3)c2=O)C1 [Compound I-176] | 7 nM |
| CCOC(=O)[C@H]1C[C@@H](n2c(=O)[nH]/c(=N\c3ccc(Oc4ccc(F)cn4)cc3)n(Cc3ccc(C)cc3)c2=O)C1 [Compound I-177] | 6 nM |
| Cc1ccc(Cn2c(=O)n([C@H]3C[C@@H](C(=O)O)C3)c(=O)[nH]/c2=N\c2ccc(Oc3ccc(Cl)cn3)cc2)cc1 [Compound I-179] | 6 nM |
| CCOC(=O)[C@H]1C[C@H](n2c(=O)[nH]/c(=N\c3ccc(Oc4ccccn4)cc3)n(Cc3ccc(C)cc3)c2=O)C1 [Compound I-180] | 5 nM |
| CCOC(=O)[C@H]1C[C@@H](n2c(=O)[nH]/c(=N\c3ccc(Oc4ccccn4)cc3)n(Cc3ccc(C)cc3)c2=O)C1 [Compound I-181] | 5 nM |
| Cc1ccc(Cn2c(=O)n([C@H]3C[C@H](C(=O)O)C3)c(=O)[nH]/c2=N\c2ccc(Oc3ccc(F)cn3)cc2)cc1 [Compound I-182] | 8 nM |
| Cc1ccc(Cn2c(=O)n([C@H]3C[C@@H](C(=O)O)C3)c(=O)[nH]/c2=N\c2ccc(Oc3ccc(F)cn3)cc2)cc1 [Compound I-183] | 12 nM |
| Cc1ccc(Cn2c(=O)n([C@H]3C[C@H](C(=O)O)C3)c(=O)[nH]/c2=N\c2ccc(Oc3ccccn3)cc2)cc1 [Compound I-184] | 6 nM |
| Cc1ccc(Cn2c(=O)n([C@H]3C[C@@H](C(=O)O)C3)c(=O)[nH]/c2=N\c2ccc(Oc3ccccn3)cc2)cc1 [Compound I-185] | 9 nM |
| COC(=O)C[C@@H](C)n1c(=O)[nH]/c(=N\c2ccc(Oc3ccccn3)cc2)n(Cc2ccc(C)cc2)c1=O [Compound I-186] | 5 nM |
| Cc1ccc(Cn2c(=O)n([C@H](C)CC(=O)O)c(=O)[nH]/c2=N\c2ccc(Oc3ccccn3)cc2)cc1 [Compound I-187] | 8 nM |
| COC(=O)C[C@@H](C)n1c(=O)[nH]/c(=N\c2ccc(Oc3ncccc3F)cc2)n(Cc2ccc(C)cc2)c1=O [Compound I-188] | 7 nM |
| Cc1ccc(Cn2c(=O)n([C@H](C)CC(=O)O)c(=O)[nH]/c2=N\c2ccc(Oc3ncccc3F)cc2)cc1 [Compound I-189] | 12 nM |
| COC(=O)C[C@@H](C)n1c(=O)[nH]/c(=N\c2ccc(Oc3ccc(F)cn3)cc2)n(Cc2ccc(C)cc2)c1=O [Compound I-190] | 5 nM |
| Cc1ccc(Cn2c(=O)n([C@H](C)CC(=O)O)c(=O)[nH]/c2=N\c2ccc(Oc3ccc(F)cn3)cc2)cc1 [Compound I-191] | 11 nM |
| CCOC(=O)C1(Cn2c(=O)[nH]/c(=N\c3ccc(Oc4ccccn4)cc3)n(Cc3ccc(Cl)cc3)c2=O)CC1 [Compound I-192] | 5 nM |
| O=C(O)C1(Cn2c(=O)[nH]/c(=N\c3ccc(Oc4ccccn4)cc3)n(Cc3ccc(Cl)cc3)c2=O)CC1 [Compound I-193] | 8 nM |
| COC(=O)[C@@H](C)Cn1c(=O)[nH]/c(=N\c2ccc(Oc3ccccn3)cc2)n(Cc2ccc(C(F)F)cc2)c1=O [Compound I-194] | 12 nM |
| Cc1ccc(Cn2c(=O)n([C@@H](C)[C@@H](C)C(=O)O)c(=O)[nH]/c2=N\c2ccc(Oc3ccccn3)cc2)cc1 [Compound I-195] | 7 nM |
| CO[C@H](Cn1c(=O)[nH]/c(=N\c2ccc(Oc3ccccn3)cc2)n(Cc2ccc(Cl)cc2)c1=O)C(=O)O [Compound I-200] | 42 nM |

| Compound | IC50 |
| --- | --- |
| C[C@@H](Cn1c(=O)[nH]/c(=N\c2ccc(Oc3ccccn3)cc2)n(Cc2ccc(C(F)F)cc2)c1=O)C(=O)O [Compound I-201] | 13 nM |
| C[C@@H](Cn1c(=O)[nH]/c(=N\c2ccc(Oc3ccccn3)cc2)n(CC2CCC3(CC2)CC3)c1=O)C(=O)O [Compound I-202] | 8 nM |
| COC(=O)[C@@H](Cn1c(=O)[nH]/c(=N\c2ccc(Oc3ccccn3)cc2)n(Cc2ccc(Cl)cc2)c1=O)OC [Compound I-203] | 3 nM |
| COC(=O)[C@@H](C)Cn1c(=O)[nH]/c(=N\c2ccc(Oc3ccccn3)c(F)c2)n(Cc2ccc(C)cc2)c1=O [Compound I-204] | 4 nM |
| COC(=O)[C@@H](C)Cn1c(=O)[nH]/c(=N\c2ccc(Oc3ccccn3)c(F)c2)n(Cc2ccc(Cl)cc2)c1=O [Compound I-205] | 12 nM |
| COC(=O)[C@@H](C)Cn1c(=O)[nH]/c(=N\c2ccc(Oc3ccccn3)cc2)n(Cc2ccc(CF)cc2)c1=O [Compound I-206] | 10 nM |
| COC(=O)[C@@H](C)Cn1c(=O)[nH]/c(=N\c2ccc(Oc3ncccc3F)cc2)n(Cc2ccc(CF)cc2)c1=O [Compound I-207] | 12 nM |
| COC(=O)[C@@H](C)Cn1c(=O)[nH]/c(=N\c2ccc(Oc3ccc(F)cn3)cc2)n(Cc2ccc(CF)cc2)c1=O [Compound I-208] | 12 nM |
| COC(=O)[C@@H](C)Cn1c(=O)[nH]/c(=N\c2ccc(Oc3cccc(F)n3)cc2)n(Cc2ccc(CF)cc2)c1=O [Compound I-209] | 8 nM |
| Cc1ccc(Cn2c(=O)n(C[C@H](C)C(=O)O)c(=O)[nH]/c2=N\c2ccc(Oc3ccccn3)c(F)c2)cc1 [Compound I-210] | 7 nM |
| C[C@@H](Cn1c(=O)[nH]/c(=N\c2ccc(Oc3ccccn3)c(F)c2)n(Cc2ccc(Cl)cc2)c1=O)C(=O)O [Compound I-211] | 7 nM |
| Cc1cc(/N=c2\[nH]c(=O)n(C[C@H](C)C(=O)O)c(=O)n2Cc2ccc(Cl)cc2)ccc1Oc1ccccn1 [Compound I-212] | 10 nM |
| Cc1ccc(Cn2c(=O)n(C[C@H](C)C(=O)O)c(=O)[nH]/c2=N\c2ccc(Oc3ccccn3)c(C)c2)cc1 [Compound I-213] | 12 nM |
| C[C@@H](Cn1c(=O)[nH]/c(=N\c2ccc(Oc3ccccn3)cc2)n(Cc2ccc(CF)cc2)c1=O)C(=O)O [Compound I-214] | 11 nM |
| C[C@@H](Cn1c(=O)[nH]/c(=N\c2ccc(Oc3ncccc3F)cc2)n(Cc2ccc(CF)cc2)c1=O)C(=O)O [Compound I-215] | 16 nM |
| C[C@@H](Cn1c(=O)[nH]/c(=N\c2ccc(Oc3ccc(F)cn3)cc2)n(Cc2ccc(CF)cc2)c1=O)C(=O)O [Compound I-216] | 17 nM |
| C[C@@H](Cn1c(=O)[nH]/c(=N\c2ccc(Oc3cccc(F)n3)cc2)n(Cc2ccc(CF)cc2)c1=O)C(=O)O [Compound I-217] | 11 nM |
| COc1cccc(Oc2ccc(/N=c3\[nH]c(=O)n(C[C@H](C)C(=O)O)c(=O)n3Cc3ccc(C)cc3)cc2)n1 [Compound I-218] | 10 nM |
| Cc1cc(/N=c2\[nH]c(=O)n(CC(C)(C)C(=O)O)c(=O)n2Cc2ccc(Cl)cc2)ccc1Oc1ccccn1 [Compound I-219] | 12 nM |
| Cc1cc(/N=c2\[nH]c(=O)n([C@@H](C)[C@@H](C)C(=O)O)c(=O)n2Cc2ccc(Cl)cc2)ccc1Oc1ccccn1 [Compound I-220] | 10 nM |

| Compound | IC50 |
| --- | --- |
| COC(=O)[C@@H](C)Cn1c(=O)[nH]/c(=N\c2ccc(Oc3cccc(OC)n3)cc2)n(Cc2ccc(C)cc2)c1=O [Compound I-221] | 11 nM |
| COC(=O)[C@@H](C)Cn1c(=O)[nH]/c(=N\c2ccc(Oc3ccc(OC)cn3)cc2)n(Cc2ccc(C)cc2)c1=O [Compound I-222] | 4 nM |
| COC(=O)[C@@H](C)Cn1c(=O)[nH]/c(=N\c2ccc(Oc3ccccn3)c(C)c2)n(Cc2ccc(Cl)cc2)c1=O [Compound I-223] | 11 nM |
| COC(=O)[C@@H](C)Cn1c(=O)[nH]/c(=N\c2ccc(Oc3ccccn3)c(C)c2)n(Cc2ccc(C)cc2)c1=O [Compound I-224] | 6 nM |
| COC(=O)C(C)(C)Cn1c(=O)[nH]/c(=N\c2ccc(Oc3ccccn3)c(C)c2)n(Cc2ccc(Cl)cc2)c1=O [Compound I-225] | 14 nM |
| COC(=O)[C@H](C)[C@H](C)n1c(=O)[nH]/c(=N\c2ccc(Oc3ccccn3)c(C)c2)n(Cc2ccc(Cl)cc2)c1=O [Compound I-226] | 38 nM |
| COC(=O)C(C)(C)Cn1c(=O)[nH]/c(=N\c2ccc(Oc3ccccn3)c(F)c2)n(Cc2ccc(Cl)cc2)c1=O [Compound I-227] | 31 nM |
| COC(=O)[C@H](C)[C@H](C)n1c(=O)[nH]/c(=N\c2ccc(Oc3ccccn3)c(F)c2)n(Cc2ccc(Cl)cc2)c1=O [Compound I-228] | 21 nM |
| COc1ccc(Oc2ccc(/N=c3\[nH]c(=O)n(C[C@H](C)C(=O)O)c(=O)n3Cc3ccc(C)cc3)cc2)nc1 [Compound I-229] | 6 nM |
| CC(C)(Cn1c(=O)[nH]/c(=N\c2ccc(Oc3ccccn3)c(F)c2)n(Cc2ccc(Cl)cc2)c1=O)C(=O)O [Compound I-230] | 11 nM |
| C[C@@H](C(=O)O)[C@H](C)n1c(=O)[nH]/c(=N\c2ccc(Oc3ccccn3)c(F)c2)n(Cc2ccc(Cl)cc2)c1=O [Compound I-231] | 7 nM |
| C[C@@H](Cn1c(=O)[nH]/c(=N\c2ccc(Oc3ccc(CF)cn3)cc2)n(Cc2ccc(Cl)cc2)c1=O)C(=O)O [Compound I-232] | 5 nM |
| C[C@@H](Cn1c(=O)[nH]/c(=N\c2ccc(Oc3ccc(CF)nc3)cc2)n(Cc2ccc(Cl)cc2)c1=O)C(=O)O [Compound I-233] | 6 nM |
| C[C@@H](Cn1c(=O)[nH]/c(=N\c2ccc(Oc3cccc(F)n3)cc2)n(CC2CCC3(CC2)CC3)c1=O)C(=O)O [Compound I-234] | 7 nM |
| C[C@@H](Cn1c(=O)[nH]/c(=N\c2ccc(Oc3ccc(F)cn3)cc2)n(CC2CCC3(CC2)CC3)c1=O)C(=O)O [Compound I-235] | 9 nM |
| COC(=O)[C@@H](C)Cn1c(=O)[nH]/c(=N\c2ccc(Oc3cccc(F)n3)cc2)n(CC2CCC3(CC2)CC3)c1=O [Compound I-236] | 16 nM |
| COC(=O)[C@@H](C)Cn1c(=O)[nH]/c(=N\c2ccc(Oc3ccc(F)cn3)cc2)n(CC2CCC3(CC2)CC3)c1=O [Compound I-237] | 14 nM |
| COC(=O)[C@@H](C)Cn1c(=O)[nH]/c(=N\c2ccc(Oc3ccc(CF)cn3)cc2)n(Cc2ccc(Cl)cc2)c1=O [Compound I-238] | 5 nM |
| COC(=O)[C@@H](C)Cn1c(=O)[nH]/c(=N\c2ccc(Oc3ccc(CF)nc3)cc2)n(Cc2ccc(Cl)cc2)c1=O [Compound I-239] | 6 nM |
| C[C@@H](Cn1c(=O)[nH]/c(=N\c2ccc(Oc3cc(CO)ccn3)cc2)n(Cc2ccc(Cl)cc2)c1=O)C(=O)O [Compound I-240] | 22 nM |
